Results published in PubChem BioAssay (NCI).
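In this assay, cells in 96-well plates receive the compound at five concentrations for 48 hours. Endpoints are linearly interpolated between the surrounding concentrations. TGI: total growth inhibition.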

Key:
Assay in all cases: NCI tumour cell line growth inhibition, 48 h
DU-145 prostate = test system: DU-145 prostate
MDA-N = test system: MDA-N
U251 CNS = test system: U251 CNS
786-0 renal = test system: 786-0 renal
DLD-1 colon = test system: DLD-1 colon
OVCAR-8 ovarian = test system: OVCAR-8 ovarian
DMS 114 small cell lung = test system: DMS 114 small cell lung
SNB-19 CNS = test system: SNB-19 CNS
MDA-MB-435 = test system: MDA-MB-435
HCC-2998 colon = test system: HCC-2998 colon
M14 melanoma = test system: M14 melanoma
UO-31 renal = test system: UO-31 renal
HOP-18 NSCLC = test system: HOP-18 NSCLC
COLO 205 colon = test system: COLO 205 colon
OVCAR-5 ovarian = test system: OVCAR-5 ovarian
SR leukemia = test system: SR leukemia
HCT-15 colon = test system: HCT-15 colon
PC-3 prostate = test system: PC-3 prostate
LOX IMVI melanoma = test system: LOX IMVI melanoma
NCI-H522 lung = test system: NCI-H522 lung
SK-OV-3 ovarian = test system: SK-OV-3 ovarian
HT29 colon = test system: HT29 colon
IGROV1 ovarian = test system: IGROV1 ovarian
A549 NSCLC = test system: A549 NSCLC
HS 578T breast = test system: HS 578T breast
MCF7 breast = test system: MCF7 breast
HCT-116 colon = test system: HCT-116 colon
UACC-257 melanoma = test system: UACC-257 melanoma
KM20L2 colon = test system: KM20L2 colon
SF-295 CNS = test system: SF-295 CNS
NCI-H23 lung = test system: NCI-H23 lung
MALME-3M melanoma = test system: MALME-3M melanoma
SK-MEL-28 melanoma = test system: SK-MEL-28 melanoma
LXFL 529 NSCLC = test system: LXFL 529 NSCLC
SW-620 colon = test system: SW-620 colon
T-47D breast = test system: T-47D breast
DMS 273 small cell lung = test system: DMS 273 small cell lung
SF-539 CNS = test system: SF-539 CNS
NCI-H226 lung = test system: NCI-H226 lung
MOLT-4 leukemia = test system: MOLT-4 leukemia
M19-MEL melanoma = test system: M19-MEL melanoma
A498 renal = test system: A498 renal
OVCAR-3 ovarian = test system: OVCAR-3 ovarian
RPMI-8226 leukemia = test system: RPMI-8226 leukemia
RXF 393 renal = test system: RXF 393 renal
UACC-62 melanoma = test system: UACC-62 melanoma
SN12C renal = test system: SN12C renal
SK-MEL-5 melanoma = test system: SK-MEL-5 melanoma
HOP-62 NSCLC = test system: HOP-62 NSCLC
HOP-92 NSCLC = test system: HOP-92 NSCLC
BT-549 breast = test system: BT-549 breast
OVCAR-4 ovarian = test system: OVCAR-4 ovarian
NCI-H460 lung = test system: NCI-H460 lung
ACHN renal = test system: ACHN renal
CAKI-1 renal = test system: CAKI-1 renal
K-562 leukemia = test system: K-562 leukemia
EKVX NSCLC = test system: EKVX NSCLC
SK-MEL-2 melanoma = test system: SK-MEL-2 melanoma
XF 498 CNS = test system: XF 498 CNS
SNB-78 CNS = test system: SNB-78 CNS
NCI/ADR-RES ovarian = test system: NCI/ADR-RES ovarian
SF-268 CNS = test system: SF-268 CNS
MDA-MB-231 breast = test system: MDA-MB-231 breast
TK-10 renal = test system: TK-10 renal
HL-60(TB) leukemia = test system: HL-60(TB) leukemia
CCRF-CEM leukemia = test system: CCRF-CEM leukemia
SNB-75 CNS = test system: SNB-75 CNS
KM12 colon = test system: KM12 colon
RXF-631 renal = test system: RXF-631 renal

CCOc1ccc(N=Cc2ccnc3ccccc23)cc1
TGI (DU-145 prostate): > 100 µM | TGI (MDA-N): > 100 µM | TGI (U251 CNS): > 68.1 µM | TGI (786-0 renal): > 100 µM | TGI (DLD-1 colon): > 100 µM | TGI (OVCAR-8 ovarian): > 83.7 µM | TGI (DMS 114 small cell lung): > 61.8 µM | TGI (SNB-19 CNS): > 100 µM | TGI (MDA-MB-435): > 100 µM | TGI (HCC-2998 colon): 81.4 µM | TGI (M14 melanoma): 80 µM | TGI (UO-31 renal): > 100 µM | TGI (HOP-18 NSCLC): > 100 µM | TGI (COLO 205 colon): > 100 µM | TGI (OVCAR-5 ovarian): > 100 µM | TGI (SR leukemia): 6.76 µM | TGI (HCT-15 colon): > 87.9 µM | TGI (PC-3 prostate): > 100 µM | TGI (LOX IMVI melanoma): > 80.3 µM | TGI (NCI-H522 lung): > 94.8 µM | TGI (SK-OV-3 ovarian): > 83.3 µM | TGI (HT29 colon): > 100 µM | TGI (IGROV1 ovarian): > 100 µM | TGI (A549 NSCLC): > 100 µM | TGI (HS 578T breast): > 100 µM | TGI (MCF7 breast): > 100 µM | TGI (HCT-116 colon): 54.3 µM | TGI (UACC-257 melanoma): > 100 µM | TGI (KM20L2 colon): > 94.8 µM | TGI (SF-295 CNS): > 100 µM | TGI (NCI-H23 lung): > 98 µM | TGI (MALME-3M melanoma): > 97.7 µM | TGI (SK-MEL-28 melanoma): > 100 µM | TGI (LXFL 529 NSCLC): 47.4 µM | TGI (SW-620 colon): > 100 µM | TGI (T-47D breast): > 100 µM | TGI (DMS 273 small cell lung): > 87.5 µM | TGI (SF-539 CNS): 85.9 µM | TGI (NCI-H226 lung): > 100 µM | TGI (MOLT-4 leukemia): > 100 µM | TGI (M19-MEL melanoma): > 100 µM | TGI (A498 renal): > 100 µM | TGI (OVCAR-3 ovarian): 73.1 µM | TGI (RPMI-8226 leukemia): 35.1 µM | TGI (RXF 393 renal): > 100 µM | TGI (UACC-62 melanoma): > 100 µM | TGI (SN12C renal): > 91.5 µM | TGI (SK-MEL-5 melanoma): > 82.6 µM | TGI (HOP-62 NSCLC): > 94 µM | TGI (HOP-92 NSCLC): > 100 µM | TGI (BT-549 breast): > 81.1 µM | TGI (OVCAR-4 ovarian): > 100 µM | TGI (NCI-H460 lung): > 100 µM | TGI (ACHN renal): > 100 µM | TGI (CAKI-1 renal): > 100 µM | TGI (K-562 leukemia): 46.9 µM | TGI (EKVX NSCLC): > 100 µM | TGI (SK-MEL-2 melanoma): > 85.3 µM | TGI (XF 498 CNS): > 100 µM | TGI (SNB-78 CNS): > 95.7 µM | TGI (NCI/ADR-RES ovarian): > 100 µM | TGI (SF-268 CNS): > 84.2 µM | TGI (MDA-MB-231 breast): > 75.9 µM | TGI (TK-10 renal): > 100 µM | TGI (HL-60(TB) leukemia): 17 µM | TGI (CCRF-CEM leukemia): 36.5 µM | TGI (SNB-75 CNS): > 92.2 µM | TGI (KM12 colon): > 89.9 µM

CC(C)C(=S)N(C)O
TGI (RXF-631 renal): > 100 µM | TGI (U251 CNS): > 100 µM | TGI (786-0 renal): > 100 µM | TGI (DLD-1 colon): > 100 µM | TGI (OVCAR-8 ovarian): > 100 µM | TGI (DMS 114 small cell lung): 19.3 µM | TGI (SNB-19 CNS): > 100 µM | TGI (HCC-2998 colon): > 100 µM | TGI (M14 melanoma): > 100 µM | TGI (UO-31 renal): 50.2 µM | TGI (COLO 205 colon): > 100 µM | TGI (OVCAR-5 ovarian): > 100 µM | TGI (SR leukemia): > 100 µM | TGI (HCT-15 colon): > 100 µM | TGI (LOX IMVI melanoma): 62.5 µM | TGI (NCI-H522 lung): > 27.2 µM | TGI (SK-OV-3 ovarian): > 100 µM | TGI (HT29 colon): 13.2 µM | TGI (IGROV1 ovarian): > 100 µM | TGI (A549 NSCLC): > 100 µM | TGI (HCT-116 colon): 19.9 µM | TGI (UACC-257 melanoma): > 100 µM | TGI (KM20L2 colon): > 100 µM | TGI (SF-295 CNS): > 100 µM | TGI (NCI-H23 lung): > 100 µM | TGI (MALME-3M melanoma): > 100 µM | TGI (SK-MEL-28 melanoma): > 100 µM | TGI (LXFL 529 NSCLC): > 100 µM | TGI (SW-620 colon): > 61.5 µM | TGI (SF-539 CNS): 89.7 µM | TGI (NCI-H226 lung): > 100 µM | TGI (MOLT-4 leukemia): > 24.7 µM | TGI (M19-MEL melanoma): > 57.4 µM | TGI (A498 renal): 63.1 µM | TGI (OVCAR-3 ovarian): > 100 µM | TGI (RPMI-8226 leukemia): > 52.6 µM | TGI (RXF 393 renal): > 100 µM | TGI (UACC-62 melanoma): > 61.9 µM | TGI (SN12C renal): > 100 µM | TGI (SK-MEL-5 melanoma): > 77.7 µM | TGI (HOP-62 NSCLC): > 93.3 µM | TGI (HOP-92 NSCLC): > 100 µM | TGI (OVCAR-4 ovarian): > 100 µM | TGI (NCI-H460 lung): > 75.5 µM | TGI (ACHN renal): > 100 µM | TGI (CAKI-1 renal): > 100 µM | TGI (K-562 leukemia): > 100 µM | TGI (EKVX NSCLC): > 100 µM | TGI (SK-MEL-2 melanoma): 72.3 µM | TGI (SNB-78 CNS): > 100 µM | TGI (SF-268 CNS): > 100 µM | TGI (TK-10 renal): > 91.4 µM | TGI (HL-60(TB) leukemia): > 24.2 µM | TGI (SNB-75 CNS): > 100 µM | TGI (KM12 colon): > 72.9 µM

CN1NC(c2ccccc2)=C(C#N)C(=O)CC1c1ccc(Br)cc1 (centres undefined)
TGI (DLD-1 colon): > 100 µM | TGI (SNB-19 CNS): > 100 µM | TGI (HCC-2998 colon): > 100 µM | TGI (M14 melanoma): 45.8 µM | TGI (HOP-18 NSCLC): > 100 µM | TGI (OVCAR-5 ovarian): 73.7 µM | TGI (SR leukemia): > 100 µM | TGI (HCT-15 colon): > 100 µM | TGI (LOX IMVI melanoma): > 100 µM | TGI (NCI-H522 lung): 53.7 µM | TGI (SK-OV-3 ovarian): > 100 µM | TGI (HT29 colon): 75.6 µM | TGI (A549 NSCLC): > 100 µM | TGI (HCT-116 colon): > 100 µM | TGI (UACC-257 melanoma): > 100 µM | TGI (SF-295 CNS): 91.2 µM | TGI (NCI-H23 lung): > 100 µM | TGI (MALME-3M melanoma): > 100 µM | TGI (SK-MEL-28 melanoma): > 100 µM | TGI (LXFL 529 NSCLC): > 100 µM | TGI (SW-620 colon): > 100 µM | TGI (NCI-H226 lung): 4.24 µM | TGI (A498 renal): > 100 µM | TGI (RPMI-8226 leukemia): > 100 µM | TGI (RXF 393 renal): > 100 µM | TGI (SN12C renal): > 100 µM | TGI (SK-MEL-5 melanoma): 57.7 µM | TGI (HOP-62 NSCLC): 61 µM | TGI (HOP-92 NSCLC): > 100 µM | TGI (OVCAR-4 ovarian): > 100 µM | TGI (NCI-H460 lung): > 100 µM | TGI (ACHN renal): > 100 µM | TGI (CAKI-1 renal): > 100 µM | TGI (SK-MEL-2 melanoma): 70 µM | TGI (XF 498 CNS): 78.2 µM | TGI (SNB-78 CNS): > 100 µM | TGI (SF-268 CNS): > 100 µM | TGI (TK-10 renal): > 100 µM | TGI (HL-60(TB) leukemia): 83 µM | TGI (SNB-75 CNS): 46.9 µM | TGI (KM12 colon): > 100 µM
